Substitutions are numbered along the chain they refer to. Like-named read-outs stand apart in the source and are kept apart here.
Legend:
[1] = tested on: HCT116 cells containing MPS1 p.C604W; assay: Cell viability assay, HCT116 NvR clones with MPS1 p.C604W (NvR12 etc.); settings: for resistance / potency in cell viability assay vs parental: p.C604W (NvR12); for Resistance conferred by mutation p.C604W: summary table of inhibitors vs mutations; for GI50: Homo sapiens
[2] = tested on: HCT116 cells containing MPS1 p.M600T; assay: Cell viability assay, HCT116 NvR clones with MPS1 p.M600T (NvR1 etc.); settings: for Resistance conferred by mutation p.M600T: summary table of inhibitors vs mutations; for GI50: Homo sapiens
[3] = tested on: kinetochore localisation of SAC proteins in HeLa cells; assay: Immunofluorescence of kinetochore proteins in HeLa cells; type: cell-based
Description: (§1) For analysis by immunofluorescence, cells were fixed in 1% formaldehyde for 5 min at room temperature, quenched in glycine, washed in PBS-Triton X-100 (0.1% PBS-T) and incubated for 1 hour in primary antibodies in PBS-T: MAD2 (Bethyl Laboratories Inc., A300-301A), CDC2020 (Millipore, MAB3775), MPS1 (Millipore, 05-682), MPS1 pT33pS37 (Life Technologies, 44-1325G) and ACA (ImmunoVision, HST-0100). After PBS-T washes, cells were incubated with fluorescent-conjugated secondary antibodies (Life Technologies), stained with DAPI (Life Technologies) and mounted onto slides with Vectashield (Vector Labs). Images were acquired using a Zeiss LSM 710 confocal microscope and processed using Velocity 3D Image analysis software (PerkinElmer). Time-lapse micrscopy was performed in 96-well Ibidi plate (Thistle Scientific) using a Diaphot inverted microscope (Nikon), in a humidified CO2 chamber at 37° C., using a motorized stage (Prior Scientific), controlled by Simple PCI software (Compix).

[4] = tested on: HeLa cells; assay: Time-lapse microscopy, time in mitosis and mitotic defects, HeLa; type: cell-based; settings: 0.6 μM CCT251455
Description: as §1

[5] = tested on: taxol or nocodazole-induced SAC; assay: Abrogation of taxol or nocodazole-induced SAC (mitotic index, MPM2 staining and flow cytometry); type: cell-based; settings: within 1 hour following inhibitor treatment; 0.6 μM CCT251455
Description: Cells were fixed overnight at −20° C. in 70% ethanol, washed in PBS, then incubated in 10 μg/ml propidium iodide and 0.5% RNase (Sigma) for 30 min and then analysed using LSRII flow cytometer (BD Biosciences). To stain for mitosis, cells were incubated for 1 hour at 4° C. with anti-MPM2 antibodies (Millipore, 05-368), then 1 hour at 4° C. with FITC-conjugated secondary antibodies (Life technology).

[6] = tested on: parental HCT116 cells; assay: Flow cytometry cell cycle profiles, parental HCT116; type: cell-based, human
Description: Cells were fixed overnight at −20° C. in 70% ethanol, washed in PBS, then incubated in 10 μg/ml propidium iodide and 0.5% RNase (Sigma) for 30 min and then analysed using LSRII flow cytometer (BD Biosciences).

[7] = biological target: T1, recombinant full-length MPS1 p.C604W (Homo sapiens, UniProt P33981, C604W); assay: Recombinant MPS1 kinase assay (electrophoretic mobility shift), p.C604W; type: biochemical; settings: for IC50: C604W, mean ± SD, quadruplicate
T1 construct: made in house; host or cells: Sf9 insect cells (baculovirus, modified pFastBac1)
T1 sequence (P33981 1-857 C604W): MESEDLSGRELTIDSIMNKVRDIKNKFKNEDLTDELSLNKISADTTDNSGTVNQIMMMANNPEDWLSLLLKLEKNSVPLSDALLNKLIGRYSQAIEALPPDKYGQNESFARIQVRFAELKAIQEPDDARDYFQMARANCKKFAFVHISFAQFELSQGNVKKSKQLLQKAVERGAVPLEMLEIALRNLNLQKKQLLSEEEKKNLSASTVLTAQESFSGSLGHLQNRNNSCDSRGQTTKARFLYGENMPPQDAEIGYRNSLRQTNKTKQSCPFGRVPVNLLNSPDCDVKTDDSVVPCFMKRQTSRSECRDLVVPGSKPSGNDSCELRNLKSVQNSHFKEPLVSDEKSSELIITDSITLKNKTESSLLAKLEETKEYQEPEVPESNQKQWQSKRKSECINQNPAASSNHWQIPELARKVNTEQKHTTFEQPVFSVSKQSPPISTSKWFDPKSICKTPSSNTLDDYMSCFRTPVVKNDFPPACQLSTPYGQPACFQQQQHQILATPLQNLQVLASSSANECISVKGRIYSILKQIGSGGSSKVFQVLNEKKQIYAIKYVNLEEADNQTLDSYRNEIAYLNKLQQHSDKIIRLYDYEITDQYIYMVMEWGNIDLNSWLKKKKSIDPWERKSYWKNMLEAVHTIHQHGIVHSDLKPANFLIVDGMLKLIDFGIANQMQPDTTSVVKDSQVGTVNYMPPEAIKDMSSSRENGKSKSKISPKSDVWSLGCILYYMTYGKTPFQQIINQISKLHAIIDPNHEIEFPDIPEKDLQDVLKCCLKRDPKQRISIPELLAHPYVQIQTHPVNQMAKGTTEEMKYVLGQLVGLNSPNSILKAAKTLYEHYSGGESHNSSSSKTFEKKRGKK
Description: (§2) For high ATP concentration assays, 1 mM ATP was used. An ECHO® 550 (Labcyte Inc) acoustic dispenser was used to generate duplicate 8 point dilution curves directly into 384-well low-volume polystyrene assay plates (Corning Life Sciences). The reaction was carried out for 90 min at room temperature.

[8] = biological target: T2, recombinant full-length wild-type MPS1 (Homo sapiens, UniProt P33981); assay: Recombinant MPS1 kinase assay (electrophoretic mobility shift), WT; type: biochemical; settings: mean ± SD, quadruplicate
T2 construct: For protein expression of full-length MPS1 proteins, Sf9 insect cells were grown at 27° C; made in house; host or cells: Sf9 insect cells (baculovirus, modified pFastBac1)
T2 sequence (P33981 1-857): T1 sequence (P33981 1-857 C604W) with W604C
Description: as §2

[9] = tested on: parental HCT116 cells; assay: Time-lapse microscopy, time in mitosis, parental HCT116; type: cell-based, human
Description: as §1

[10] = tested on: parental HCT116 cells; assay: Cell viability assay (CellTiterGlo, 4 days), parental HCT116; type: cell-based, human
[11] = ATP at Km, read-out: IC50 values at ATP Km
[12] = IC50 values at 1 mM ATP, 1 mM ATP

`Cc1ncc(-c2ccc(Nc3cc4c(cn3)cc(-c3cnn(C)c3)n4C(=O)OC(C)C)c(F)c2)n1C` [Compound 3, isopropyl 6-(4-(1,2-dimethyl-1H-imidazol-5-yl)-2-fluorophenylamino)-2-(1-methyl-1H-pyrazol-4-yl)-1H-pyrrolo[3,2-c]pyridine-1-carboxylate] was tested, and the “resistance / potency in cell viability assay vs parental” value [1] was “more potent”, the “fold resistance in cell viability assay vs parental” value ([2]; p.M600T (NvR1)) was roughly 2 fold and the “Resistance conferred by mutation p.M600T” value [2] was “R”.

In the case of `Cn1cc(-c2cc3cnc(Nc4ccc(-c5cncn5C)cc4Cl)cc3n2C(=O)OC(C)(C)C)cn1` [CCT251455, Tert-Butyl 6-(2-Chloro-4-(1-methyl-1H-imidazol-5-yl)phenylamino)-2-(1-methyl-1H-pyrazol-4-yl)-1H-pyrrolo[3,2-c]pyridine-1-carboxylate], the MPS1 kinetochore localisation ([3]; 0.6 μM CCT251455) is reported as “increased”, the “MPS1 pT33/S37 and pT676 signals” value ([3]; 0.6 μM CCT251455) is reported as “no longer visible” and the “kinetochore recruitment of BUB1 and BUBR1” value ([3]; 0.6 μM CCT251455) is reported as “reduced, but still visible by microscopy”. For the same compound, the “kinetochore recruitment of MAD2, MAD1, ZW10 and CDC20” value ([3]; 0.6 μM CCT251455) was “severely inhibited”, the “kinetochore localisation of ZWINT-1, CENP-E, CENP-F and CENP-A pS7” value ([3]; controls) was “remained unaffected” and the “cells with unaligned chromosomes” value [4] was 98%. The “time to exit mitosis” value [4] was roughly 17 min, the “cells that had exited mitosis” value [5] was roughly 100% and the “concentration at which cell cycle profiles were abolished” value ([6]; HCT116, 24 hour treatment) was 0.32 µM.

With `Cn1cc(-c2ccc(Nc3ccc(C#N)c(NC4CCCCC4)n3)cc2OCC#N)cn1` [ONCOII] the “resistance / potency in cell viability assay vs parental” value [1] was “able to confer resistance”, the “Resistance conferred by mutation p.C604W” value [1] was “R” and the IC50 [7, 11] was 2600 ± 650 nM. For the same compound, the IC50 [7, 12] was 8300 ± 2900 nM, the “fold resistance of recombinant p.C604W vs wild-type protein” value ([7]; recombinant full-length MPS1 (Table 2)) was 75 fold and the “resistance in cell viability assay vs parental” value ([2]; p.M600T (NvR1)) was “able to confer resistance”. For the same compound, the “Resistance conferred by mutation p.M600T” value [2] was “R”, the IC50 [8, 11] was 10.8 ± 3.7 nM and the IC50 [8, 12] was 110 ± 18 nM.

With `CCc1cccc(CC)c1NC(=O)c1nn(C)c2c1CCc1cnc(Nc3ccc(C(=O)NC4CCN(C)CC4)cc3OC(F)(F)F)nc1-2` [NMS-P715] the GI50 ([1]; HCT-116, read-out: GI50 NMS-P715, NvR9, p.C604W) was 2150 nM, the GI50 ([1]; HCT-116, read-out: GI50 NMS-P715, NvR12, p.C604W) was 2430 nM and the GI50 ([1]; HCT-116, read-out: GI50 NMS-P715, NvR13, p.C604W) was 4250 nM. It also gave a GI50 ([1]; HCT-116, read-out: GI50 NMS-P715, NvR14, p.C604W) of 3730 nM, a GI50 ([1]; HCT-116, read-out: GI50 NMS-P715, NvR15, p.C604W) of 3820 nM and a GI50 ([1]; HCT-116, read-out: GI50 NMS-P715, NvR16, p.C604W) of 3260 nM. For the same compound, the GI50 ([1]; HCT-116, read-out: GI50 NMS-P715, NvR17, p.C604W) was 3760 nM, the GI50 ([1]; HCT-116, read-out: GI50 NMS-P715, NvR18, p.C604W) was 3760 nM and the GI50 ([1]; HCT-116, read-out: GI50 NMS-P715, NvR19, p.C604W) was 3500 nM. It also gave a GI50 ([1]; HCT-116, read-out: GI50 NMS-P715, NvR20, p.C604W) of 3860 nM, a GI50 ([1]; HCT-116, read-out: GI50 NMS-P715, NvR21, p.C604W) of 2120 nM and a GI50 ([1]; HCT-116, read-out: GI50 NMS-P715, NvR22, p.C604W) of 2200 nM. The GI50 ([1]; HCT-116, read-out: GI50 NMS-P715, NvR23, p.C604W) was 2270 nM, the GI50 ([1]; HCT-116, read-out: GI50 NMS-P715, NvR24, p.C604W) was 2240 nM and the GI50 ([1]; HCT-116, read-out: GI50 NMS-P715, NvR25, p.C604W) was 4330 nM. The GI50 ([1]; HCT-116, read-out: GI50 NMS-P715, NvR26, p.C604W) was 2250 nM, the GI50 ([1]; HCT-116, read-out: GI50 NMS-P715, NvR29, p.C604W) was 4080 nM and the GI50 ([1]; HCT-116, read-out: GI50 NMS-P715, NvR30, p.C604W) was 1240 nM. For the same compound, the GI50 ([1]; HCT-116, read-out: GI50 NMS-P715, NvR34, p.C604W) was 2090 nM, the GI50 ([1]; HCT-116, read-out: GI50 NMS-P715, NvR35, p.C604W) was 2440 nM and the “mitotic exit (SAC override)” value ([9]; 1 μM NMS-P715) was “rapidly exited mitosis”. It also gave a GI50 ([2]; HCT-116, read-out: GI50 NMS-P715, NvR1, p.M600T) of 2540 nM, a GI50 ([2]; HCT-116, read-out: GI50 NMS-P715, NvR2, p.M600T) of 1850 nM and a GI50 ([2]; HCT-116, read-out: GI50 NMS-P715, NvR4, p.M600T) of 2250 nM. It also gave a GI50 ([2]; HCT-116, read-out: GI50 NMS-P715, NvR5, p.M600T) of 2480 nM and a GI50 ([2]; HCT-116, read-out: GI50 NMS-P715, NvR6, p.M600T) of 2320 nM.

For `CC(C)(C)Nc1nc(Nc2ccc(C(N)=O)cc2)cc(N)c1C#N` [SNG12], the “Resistance conferred by mutation p.C604W” value [1] was “R” and the “Resistance conferred by mutation p.M600T” value [2] was “R”.

`COc1cc(OC2CCN(C)CC2)ccc1Nc1ncc2c(n1)n(C1CCCC1)c(=O)n2C` [AZ3146] was tested, and the “time to exit mitosis” value ([9]; 2 μM AZ3146) was 10 min, the “effect on cell cycle profile” value ([6]; 1 and 2 μM AZ3146, 24 hours) was “G1 and G2/M peaks are increasingly abolished” and the “lethal concentration in cell viability assays” value [10] was 2 µM. For the same compound, the GI50 ([10]; Homo sapiens, HCT-116) was 800 nM.
